Source: US20240285599A1, “Mature-Hepatocyte Transdifferentiation Suppressing Composition” (OSAKA UNIVERSITY, priority 2021, published 2024)

Tests used:
[1] = tested on: human cholangiocarcinoma cell line KKU213; assay: Cell proliferation assay (IncuCyte) of cholangiocarcinoma cell line KKU213; format: cell-based
Procedure: A human hepatoma cell line HepG2, and human cholangiocarcinoma cell lines HuCCT1, HuCCA1, and KKU213 were obtained from the JCRB Cell Bank. The HepG2 and KKU213 cells were cultured in a Dulbecco's modified Eagle's medium (DMEM; Nacalai Tesque, Inc., Japan) having added thereto 10% heat-inactivated fetal calf serum (FCS; Gibco, USA). The HuCCT1 cells were cultured in an RPMI medium (Nacalai Tesque, Inc., Japan) containing 10% FCS. The HuCCA1 cells were cultured in D-MEM/Ham's F-12 (containing L-glutamine and phenol red) (Wako Pure Chemical Industries, Ltd., Japan) having added thereto 10% FCS. All the cells were cultured with a CO2 incubator at 37° C. The cells were detached with trypsin (Nacalai Tesque, Inc., Japan), and were passaged. Those cells were routinely examined for mycoplasma.
The transfection of siRNA or a plasmid into cells was performed with Lipofectamine RNAiMAX Transfection Reagent (Thermo Fisher Scientific, Inc., USA) or Lipofectamine 2000 (Thermo Fisher Scientific, Inc., USA), respectively, and with Opti-MEM (Thermo Fisher Scientific, Inc., USA). The transfection of the siRNA was performed as follows: the cells were dispersed at a concentration of 100,000 cells/mL; 10 μM of the siRNA was mixed into 100 μL of the Opti-MEM at a ratio of 1 μL, and the mixture was left at rest for 5 minutes; and then 3 μL of the RNAiMAX was mixed into the mixture, and the whole was left at rest for 15 minutes, followed by administration to the supernatant of the previously dispersed cells. Further, a medium change was performed 24 hours thereafter.
Hepatocytes or cholangiocarcinoma cells were inoculated on a 96-well plate, and their cell proliferation was analyzed with IncuCyte (trademark) Si (Sartorius AG, Germany) in accordance with the manufacturer's instructions.
Two kinds of NIK siRNA (the NIK KD #1 and the NIK KD #2) were introduced into each of human cholangiocarcinoma cell lines HuCCT1, HuCCA1, and KKU213 to knock down MAP3K14 (NIK). […]

HuCCT1 cell xenograft = assay: HuCCT1 xenograft in NOG mouse, oral NIKSMI; format: in vivo; settings: twice a day, 200 mg/kg
Procedure: A histopathological slide was deparaffinized with xylene and ethanol. HE staining was performed with hematoxylin and eosin. In immunostaining, antigen activation was performed by heating in Target Retrieval Solution (Dako, USA), followed by blocking with bovine serum albumin and a reaction through use of a primary antibody at 4° C. overnight. A frozen section was dried at room temperature, and was blocked with BSA (Nacalai Tesque, Inc., Japan), followed by a reaction through use of a primary antibody in VECTASTAIN ABC Rabbit IgG Kit (Vector Laboratories, Inc., USA). DAB Substrate Kit (Vector Laboratories, Inc., USA) was used in a staining reaction. […] The number of Ki67-positive cells in a tumor was counted with ImageJ (Fiji). The immunostaining score of TRAF3 or NIK was calculated by multiplying a staining intensity (of from 0 to 3) by a stained area (%). Human ICC patients were grouped into two groups on the basis of the median immunostaining score of TRAF3 or NIK, and were evaluated for their disease-free survival (DFS) or overall survival (OS).
To generate a xenograft tumor, 5×10^6 HuCCT1 cells were mixed with Matrigel at a ratio of 1:1, and the mixture was subcutaneously injected into each of NOG mice. […] During the period, the diameters of the tumors were measured every 3 days, and the tumor sizes were each calculated by using the following equation. […]

| Compound | proliferation of cholangiocarcinoma cells ([1]; NIK siRNA introduced, FIG. 20) | number of Ki67-positive cells in tumors versus vehicle-administered tumors (HuCCT1 cell xenograft; NOG mouse HuCCT1 xenograft, 14 days, FIG. 23B) | growth of xenografts derived from the HuCCT1 cells (tumor size) (HuCCT1 cell xenograft; NOG mouse, 14 days from day 28 after transplantation, FIG. 23A) | proliferation of cholangiocarcinoma cells ([1]; 9 μM or 15 μM added at beginning of culture, FIG. 21C) |
| --- | --- | --- | --- | --- |
| NIK KD #2: siRNA of NIK, SEQ ID NO: 4 (sense) and 5 (antisense), from Thermo Fisher Scientific (sense GCAAAGAGCAAGAACCAAAUU; antisense UUUGGUUCUUGCUCUUUGCGU; listed as RNA, chemistry not given here) | significantly suppressed |  |  |  |
| NIK KD #1: siRNA of NIK, SEQ ID NO: 2 (sense) and 3 (antisense), from Thermo Fisher Scientific (sense CAAACGCAAAGAGCAAGAAUU; antisense UUCUUGCUCUUUGCGUUUGCA; listed as RNA, chemistry not given here) | significantly suppressed |  |  |  |
| COc1cc(C(N)=O)nc(-c2cccc(C#C[C@]3(O)CCN(C)C3=O)c2)c1 [NIKSMI, (R)-6-(3-((3-hydroxy-1-methyl-2-oxopyrrolidin-3-yl)ethynyl)phenyl)-4-methoxypicolinamide] |  | significantly lower | significantly suppressed | significantly suppressed |
